Assay results reported in US20240050407A1, “METHODS FOR DELAY OF EJACULATION IN HUMAN MALES” (priority 2020, published 2024).

Key:
Type in all cases: in vivo
[1] = tested on: para-chloroamphetamine (PCA)-induced ejaculation model in anaesthetized Wistar rats; experiment: Rat para-chloroamphetamine (PCA)-induced ejaculation model (ejaculation, latency, seminal vesicle pressure); conditions: for Seminal vesicle pressure response vs vehicle, FIG. 10, FIG. 11 / Ejaculation latency vs vehicle, FIG. 9: 20 mg/kg or 10 mg/kg IP 1 h before PCA
Method: Experiments were performed to assess the effect of an acute treatment of alkaloids, mesembrine, mesembrenone, mesembrenol and mesembranol, at their maximal tolerable dose (MTD) on ejaculation latency in a para-chloroamphetamine (PCA)-induced ejaculation model in anaesthetized Wistar rats.
Adult male Wistar rats (Charles-River, France, 10-11 weeks old) were housed at least 10 days prior to the beginning of the experiments with free access to regular diet and water and maintained on an inversed 12 hour dark/light cycle (9:00/21:00). All procedures were performed in accordance with the legislation on the use of laboratory animals (NIH publication N°85-23, revised 1996) and Animal Care Regulations in force in France as of 1988 (authorization from competent French Ministry of Agriculture—Agreement No. B78-423-1, July 2017).
Rats received a single administration by intraperitoneal (IP) route of either vehicle, mesembrine, mesembrenone, mesembrenol, or mesembranol 1 hour before the in vivo evaluation of PCA-induced ejaculation as follows:
Part 1: Rats received a single IP injection of either vehicle control (0.5% hydroxypropyl methylcellulose (HPMC) in sterile water, n=10), mesembrine at 20 mg/kg (n=9), 10 mg/kg (n=11), 2 mg/kg (n=12), 200 μg/kg (n=12) and 20 μg/kg (n=10) 1 hour prior to administration of PCA. Treatment groups for Part I are outlined below in Table 2:
Part 2: Rats received a single IP injection of mesembrenone at 20 mg/kg (n=10). Treatment groups for Part 2 are outlined in Table 3.
Part 3: Rats received single IP injection of mesembrenol at 20 mg/kg (n=4) or 10 mg/kg (n=6) or mesembranol at 20 mg/kg (n==6) or 10 mg/kg (n=6). Treatment for Part 3 are outlined in Table 4.
After treatment administration, the rats underwent an evaluation of their ejaculation function induced by PCA administration. Thus, the expulsion of seminal plug(s) and seminal vesicle pressure (SVP) increase was evaluated. At the end of experimental period, the rats were euthanized by an intracardiac injection of pentobarbital (Eutasol®, Centravet, France).
Drug Preparation. Alkaloids were diluted to a 100 mg/mL final concentration (stock solution) and mixed by vortex. Then, aliquots per rat were prepared and stored at −20° C. until use. The day of experiment, 1 aliquot per rat was thawed and diluted to the desired concentration. The volume of administration was either 2 mL/kg for the IP administration or 5 mL/kg for the oral gavage, in line with good practice for administration volume in rat.
Ejaculation was induced by intraperitoneal administration of P-chloroamphetamine (PCA) at 5 mg/kg in anesthetized rats according to previously described methods (Clement el al., Role of peripheral innervation in p-chloroamphetamine-induced ejaculation in anesthetized rats. J Androl 2006; 27:381-389). PCA is an amphetamine derivative that liberates catecholamines and serotonin from monoaminergic nerve terminals. Systemic administration of PCA has been reported to induce ejaculation in both conscious (Humphries et al, 1981; Rènyi, 1985) and anesthetized (Yonezawa et al, 2000) rats.
Seminal vesicle pressure (SW) was measured as a physiological marker for the emission phase of ejaculation (Clement P, Giuliano F. Physiology and Pharmacology of Ejaculation. Basic Clint Pharmacol Toxicol 201.6 119 Suppl 3:18-25),
Rats were anesthetized and their temperature maintained at 37° C. using a homoeothermic blanket. The carotid artery was catheterized with polyethylene tubings filled with heparinized saline (50 UI/ml) to record continuously blood pressure (BP) via a pressure transducer (Elcomatic 750, Glasgow, UK). Pressure was recorded using specific data acquisition software (Elphy, CNRS, France).
For measuring SVP, a suprapubic midline incision was performed to expose seminal vesicles and a polyethylene catheter (0.50 mm), filled with mineral oil, was inserted into one seminal vesicle through the apex and connected to a pressure transducer (Elcomatic 750, Glasgow, UK). […]

[2] = tested on: healthy human male subjects; experiment: Ejaculation latency in healthy human males after pure mesembrine
Method: Experiments were performed to determine the effects of pure mesembrine on ejaculation in male subjects. 0.5 mg, 1 mg, 2.5 mg, and 5 mg doses of pure mesembrine (Cayman Chemical Company, MI, USA) were administered by oral, nasal or sublingual routes to healthy human male subjects. The formulation for oral (swallowed) and sublingual (held under tongue for 5 minutes) was 2 mg mesembrine/mL 40% aqueous for oral and sublingual. The nasal spray formulation was 0.4 mg mesembrine/mL 1% w/w NaCl saline delivered via metered nasal spray device. Mesembrine was administered 20 minutes prior to sexual activity. The sexual activity was either solo masturbation (“self”) or partnered intercourse with a female partner (“partnered”). Latency time of ejaculation was measured and calculated by time from start of sexual activity to ejaculation. […] In all test cases, ejaculation coincided with orgasm. In all cases where ejaculation was not achieved, orgasm was also not achieved.

[3] = tested on: healthy human male subjects; experiment: as above; conditions: Subject D, 70 kg; 0.05 mg; Self; nasal spray (in aqueous 1% w/w NaCl)
[4] = tested on: Wistar rats; experiment: Maximal tolerable dose (MTD) in rats; conditions: rat, single IP administration
[5] = mesembrine 20 μg/kg single IP 1 h before PCA, 30-min observation
[6] = mesembrine 200 μg/kg single IP 1 h before PCA, 30-min observation
[7] = mesembrine 2 mg/kg single IP 1 h before PCA, 30-min observation
[8] = mesembrine 10 mg/kg single IP 1 h before PCA, 30-min observation
[9] = mesembrine 20 mg/kg single IP 1 h before PCA, 30-min observation

SMILES: COc1ccc(C23C=CC(O)CC2N(C)CC3)cc1OC (centres unmarked) [mesembrenol]
- Seminal vesicle pressure response vs vehicle, FIG. 10, FIG. 11 [1]: decreased
- Ejaculation latency vs vehicle, FIG. 9 ([1]; 30-min observation): delayed ejaculation

SMILES: COc1ccc([C@@]23CC[C@@H](O)C[C@@H]2N(C)CC3)cc1OC [mesembranol]
- Seminal vesicle pressure response vs vehicle, FIG. 10, FIG. 11 [1]: decreased
- Ejaculation latency vs vehicle, FIG. 9 ([1]; 30-min observation): delayed ejaculation

SMILES: COc1ccc([C@@]23CCC(=O)C[C@@H]2N(C)CC3)cc1OC [Mesembrine, mesembrine]
- Qualitative experience ([2]; Subject A, 77 kg, 0.5 mg, Self, sublingual (5 min under tongue)): Orgasm with drug was more intense than average
- Qualitative experience ([2]; Subject A, 77 kg, 1 mg, Self, sublingual (5 min under tongue)): Onset after dosing with drug felt at around 9 min;
- Qualitative experience ([2]; Subject B, 75 kg, 0.5 mg, Self, oral): Significant lengthening of latency time noticed
- Qualitative experience ([2]; Subject C, 100 kg, 0.5 mg, Self, oral): Did not complete ejaculation as an effect of drug.
- Qualitative experience ([2]; Subject D, 70 kg, 1 mg, Self, oral): Satisfactory dosing to maintain control and easily
- Qualitative experience ([2]; Subject D, 70 kg, 2.5 mg, Partnered, oral): Increased satisfaction from female partner noted.
- Qualitative experience ([2]; Subject D, 70 kg, 5 mg, Partnered, oral): Did not complete ejaculation as an effect of drug.
- ejaculation latency (in words) ([2]; all doses tested, oral, nasal or sublingual, 20 minutes prior to sexual activity): extended the ejaculation latency at all doses tested
- Qualitative experience [3]: Effects noticed more rapidly than oral dosing.
- maximal tolerable dose (MTD) [4]: 20 mg/kg (MTD)
- ejaculation during the 30-minute observation period (in words) ([1]; 20 mg/kg IP 1 h before PCA): did not ejaculate
- rats that did not ejaculate during the 30-min observation period following PCA injection ([1]; 20 mg/kg IP 1 h before PCA): 100%
- Ejaculation latency (ejaculatory response vs vehicle control), FIG. 3 ([1]; all dosage conditions tested (20 μg/kg to 20 mg/kg IP)): delayed ejaculatory response
- Seminal vesicle pressure response assessed as amplitude and AUC vs vehicle control, FIG. 4, FIG. 5 ([1]; all mesembrine treatment cases (20 μg/kg to 20 mg/kg IP)): decreased
- N of ejaculating rats [1, 5]: 9/9
- N of rats not ejaculating [1, 5]: 0/9
- Percentage of ejaculating rats [1, 5]: 100%
- N of ejaculating rats [1, 6]: 10/11
- N of rats not ejaculating [1, 6]: 1/11
- Percentage of ejaculating rats [1, 6]: 91%
- N of ejaculating rats [1, 7]: 4/12
- N of rats not ejaculating [1, 7]: 8/12
- Percentage of ejaculating rats [1, 7]: 33%
- N of ejaculating rats [1, 8]: 7/12
- N of rats not ejaculating [1, 8]: 5/12
- Percentage of ejaculating rats [1, 8]: 58%
- N of ejaculating rats [1, 9]: 0/10
- N of rats not ejaculating [1, 9]: 10/10
- Percentage of ejaculating rats [1, 9]: 0%

SMILES: COc1ccc([C@@]23C=CC(=O)C[C@@H]2N(C)CC3)cc1OC [mesembrenone]
- Seminal vesicle pressure response vs vehicle, FIG. 7, FIG. 8 ([1]; 20 mg/kg IP 1 h before PCA): decreased
- Ejaculation latency vs vehicle, FIG. 6 ([1]; 20 mg/kg IP 1 h before PCA, 30-min observation): delayed ejaculation
